Results reported in patent US10568834B2, “Delivery systems for propofol” (Yissum Research Development Company of the Hebrew …, priority 2015, dated 2020).

Legend:
[1] = Self-diffusion NMR (SD-NMR); type: physicochemical; details: for Diffusion coefficient of EtOH / Diffusion coefficient of PEG400 / Diffusion coefficient of PG / Diffusion coefficient of Solutol / Diffusion coefficient of the Loaded specie: B9A loaded with 1 wt % of the specie
Protocol: In order to determine the structure of the oil droplets (or micelles) of the microemulsions, self-diffusion NMR analysis was carried out. SD-NMR is able to locate each component within the microemulsion via measurements of its diffusion coefficient.
NMR measurements were performed with a Bruker AVII 500 spectrometer equipped with GREAT 1/10 gradients, a 5 mm BBO and a 5 mm BBI probe, both with a z-gradient coil and with a maximum gradient strength of 0.509 and 0.544 T m^−1, respectively. Diffusion was measured using an asymmetric bipolar longitudinal eddy-current delay (bpLED) experiment, or and asymmetric bipolar stimulated echo (known as one-shot) experiment with convection compensation and an asymmetry factor of 20%, ramping the strongest gradient from 2% to 95% of maximum strength in 32 steps. The spectrum was processed with the Bruker TOPSPIN software. NMR spectra were recorded at 25±0.2° C. The components were identified by their chemical shift in 1H NMR.

[2] = Microemulsion formation/appearance with propofol-like species or another surfactant; type: physicochemical; details: B9A loaded with 1 wt % of the specie, FIGS. 5A-5D
Protocol: The relationship between the surfactant and the propofol with respect to binding in the microemulsion-composition was assessed by loading B9A with 1 wt % of species similar in their structure to propofol.

[3] = B6A microemulsion, Loaded (1 wt % propofol)
[4] = B9A microemulsion, Loaded (1 wt % propofol)
[5] = Formulation with Tween 60, Loaded
[6] = Formulation with Tween 80, Loaded
[7] = Formulation with Tween 60, Unloaded
[8] = Formulation with Tween 80, Unloaded

Molecule | Diffusion coefficient of EtOH [1] | Diffusion coefficient of PEG400 [1] | Diffusion coefficient of PG [1] | Diffusion coefficient of Solutol [1] | Diffusion coefficient of the Loaded specie [1] | Diffusion coefficient of the component [1, 3] | Diffusion coefficient of the component [1, 4] | other results
CC(C)c1cccc(C(C)C)c1N | 94.6 ×10^−11 m^2/sec | 26.2 ×10^−11 m^2/sec | 44.8 ×10^−11 m^2/sec | 1.76 ×10^−11 m^2/sec | 2.15 ×10^−11 m^2/sec | – | – | –
CC(C)c1ccc(O)c(C(C)C)c1 [2,4-isomer] | – | – | – | – | – | – | – | Appearance of the system loaded with the specie [2]: not completely transparent
COc1ccc(O)c(C(C)(C)C)c1 [BHA] | – | – | – | – | – | – | – | Appearance of the system loaded with the specie [2]: not completely transparent
Cc1cc(C(C)(C)C)c(O)c(C(C)(C)C)c1 [BHT] | – | – | – | – | – | – | – | Appearance of the system loaded with the specie [2]: not completely transparent
CCO [Ethanol, ethanol] | – | – | – | – | – | 6.91 × 10^−10 m^2/sec | 9.82 × 10^−10 m^2/sec | Diffusion coefficient of the component ([1]; B6A microemulsion, Unloaded): 8.83 × 10^−10 m^2/sec; Diffusion coefficient of the component ([1]; B9A microemulsion, Unloaded): 7.65 × 10^−10 m^2/sec
CC(C)c1cccc(C(C)C)c1O [Propofol, 2,6-diisopropyl phenol] | 98.2 ×10^−11 m^2/sec | 26.3 ×10^−11 m^2/sec | 84.5 ×10^−11 m^2/sec | 1.50 ×10^−11 m^2/sec | 1.54 ×10^−11 m^2/sec | 1.02 × 10^−11 m^2/sec | 1.54 × 10^−11 m^2/sec | Diffusion coefficient of the component [1, 5]: 1.04 × 10^−11 m^2/sec; Diffusion coefficient of the component [1, 6]: 1.73 × 10^−11 m^2/sec
CC(O)CO (stereo not shown) [Propylene glycol, propylene glycol] | – | – | – | – | – | 5.22 × 10^−10 m^2/sec | 8.45 × 10^−10 m^2/sec | Diffusion coefficient of the component ([1]; B6A microemulsion, Unloaded): 6.68 × 10^−10 m^2/sec; Diffusion coefficient of the component ([1]; B9A microemulsion, Unloaded): 5.96 × 10^−10 m^2/sec; Diffusion coefficient of the component [1, 5]: 3.24 × 10^−10 m^2/sec; Diffusion coefficient of the component [1, 7]: 4.96 × 10^−10 m^2/sec; Diffusion coefficient of the component [1, 6]: 4.82 × 10^−10 m^2/sec; Diffusion coefficient of the component [1, 8]: 5.43 × 10^−10 m^2/sec
CC(C)(C)c1cc(O)ccc1O [TBHQ] | – | – | – | – | – | – | – | Appearance of the system loaded with the specie [2]: classic milky emulsion
O [Water, water] | – | – | – | – | – | 1.37 × 10^−9 m^2/sec | 1.62 × 10^−9 m^2/sec | Diffusion coefficient of the component ([1]; B6A microemulsion, Unloaded): 1.76 × 10^−9 m^2/sec; Diffusion coefficient of the component ([1]; B9A microemulsion, Unloaded): 1.52 × 10^−9 m^2/sec; Diffusion coefficient of the component [1, 5]: 1.12 × 10^−9 m^2/sec; Diffusion coefficient of the component [1, 7]: 1.86 × 10^−9 m^2/sec; Diffusion coefficient of the component [1, 6]: 1.24 × 10^−9 m^2/sec; Diffusion coefficient of the component [1, 8]: 1.91 × 10^−9 m^2/sec
CC(C)c1ccc(O)c(C(C)C)c1 [drawing 3] | 96.6 ×10^−11 m^2/sec | 26.3 ×10^−11 m^2/sec | 73.6 ×10^−11 m^2/sec | 1.63 ×10^−11 m^2/sec | 1.75 ×10^−11 m^2/sec | – | – | –
COc1ccc(O)c(C(C)(C)C)c1 [drawing 4] | 91.2 ×10^−11 m^2/sec | 24.5 ×10^−11 m^2/sec | 78.3 ×10^−11 m^2/sec | 1.75 ×10^−11 m^2/sec | 1.78 ×10^−11 m^2/sec | – | – | –
Cc1cc(C(C)(C)C)c(O)c(C(C)(C)C)c1 [drawing 5] | 98.2 ×10^−11 m^2/sec | 24.3 ×10^−11 m^2/sec | 79.1 ×10^−11 m^2/sec | 1.75 ×10^−11 m^2/sec | 1.58 ×10^−11 m^2/sec | – | – | –
polyethylene glycol 15-hydroxystearate [Solutol] | – | – | – | – | – | 1.62 × 10^−11 m^2/sec | 1.50 × 10^−11 m^2/sec | Diffusion coefficient of the component ([1]; B6A microemulsion, Unloaded): 1.45 × 10^−11 m^2/sec; Diffusion coefficient of the component ([1]; B9A microemulsion, Unloaded): 1.94 × 10^−11 m^2/sec
polysorbate 60 [Tween 60] | – | – | – | – | – | – | – | Diffusion coefficient of the component [1, 5]: 1.63 × 10^−11 m^2/sec; Diffusion coefficient of the component [1, 7]: 0.92 × 10^−11 m^2/sec
polysorbate 80 [Tween 80] | – | – | – | – | – | – | – | Diffusion coefficient of the component [1, 6]: 2.08 × 10^−11 m^2/sec; Diffusion coefficient of the component [1, 8]: 1.73 × 10^−11 m^2/sec
